From patent EP4745137A1 (Gluetacs Therapeutics (Shanghai) Co., Ltd., priority 2023, dated 2025)

Assays:
WEE1 = molecular target: T1, WEE1 (Homo sapiens, UniProt P30291+Q96SW2); assay: Western-blot assay of substrate protein degradation in hPBMCs, WEE1; type: cell-based; conditions: 24 hours of compound treatment
T1 construct: endogenous in cells; host or cells: hPBMCs (Milecell Biotechnologies)

IKZF1 = molecular target: T2, IKZF1 (Homo sapiens, UniProt Q13422+Q96SW2); assay: Western-blot assay of substrate protein degradation in hPBMCs, IKZF1; type: cell-based; conditions: 24 hours of compound treatment
T2 construct: endogenous in cells; host or cells: hPBMCs (Milecell Biotechnologies)
T2 sequence (Q13422 whole entry): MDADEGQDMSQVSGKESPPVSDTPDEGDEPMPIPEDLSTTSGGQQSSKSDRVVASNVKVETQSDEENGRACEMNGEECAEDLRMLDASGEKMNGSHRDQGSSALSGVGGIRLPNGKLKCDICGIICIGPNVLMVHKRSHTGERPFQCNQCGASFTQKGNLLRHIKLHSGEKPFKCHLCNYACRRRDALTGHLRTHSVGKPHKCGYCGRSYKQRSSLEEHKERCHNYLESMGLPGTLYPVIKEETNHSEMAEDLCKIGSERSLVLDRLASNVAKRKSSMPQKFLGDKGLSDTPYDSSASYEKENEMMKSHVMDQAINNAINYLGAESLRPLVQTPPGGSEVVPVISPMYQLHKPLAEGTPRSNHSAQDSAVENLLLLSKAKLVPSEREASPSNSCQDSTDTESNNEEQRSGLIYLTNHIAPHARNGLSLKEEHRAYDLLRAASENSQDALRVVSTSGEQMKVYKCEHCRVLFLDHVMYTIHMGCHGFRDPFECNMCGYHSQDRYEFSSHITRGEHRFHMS
T2 sequence (Q96SW2 whole entry): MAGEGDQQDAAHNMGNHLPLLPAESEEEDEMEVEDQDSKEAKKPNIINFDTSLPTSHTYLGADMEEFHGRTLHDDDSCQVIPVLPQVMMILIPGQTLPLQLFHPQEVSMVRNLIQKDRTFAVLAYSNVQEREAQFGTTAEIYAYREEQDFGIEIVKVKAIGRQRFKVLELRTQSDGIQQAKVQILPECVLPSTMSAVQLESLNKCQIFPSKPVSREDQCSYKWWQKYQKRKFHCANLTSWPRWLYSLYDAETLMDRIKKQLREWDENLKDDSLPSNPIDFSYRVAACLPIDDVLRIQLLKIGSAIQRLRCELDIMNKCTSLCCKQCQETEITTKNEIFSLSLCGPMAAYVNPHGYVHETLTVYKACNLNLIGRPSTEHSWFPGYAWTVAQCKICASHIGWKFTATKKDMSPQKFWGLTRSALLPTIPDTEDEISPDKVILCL
T2 sequence (Q16531 whole entry partner): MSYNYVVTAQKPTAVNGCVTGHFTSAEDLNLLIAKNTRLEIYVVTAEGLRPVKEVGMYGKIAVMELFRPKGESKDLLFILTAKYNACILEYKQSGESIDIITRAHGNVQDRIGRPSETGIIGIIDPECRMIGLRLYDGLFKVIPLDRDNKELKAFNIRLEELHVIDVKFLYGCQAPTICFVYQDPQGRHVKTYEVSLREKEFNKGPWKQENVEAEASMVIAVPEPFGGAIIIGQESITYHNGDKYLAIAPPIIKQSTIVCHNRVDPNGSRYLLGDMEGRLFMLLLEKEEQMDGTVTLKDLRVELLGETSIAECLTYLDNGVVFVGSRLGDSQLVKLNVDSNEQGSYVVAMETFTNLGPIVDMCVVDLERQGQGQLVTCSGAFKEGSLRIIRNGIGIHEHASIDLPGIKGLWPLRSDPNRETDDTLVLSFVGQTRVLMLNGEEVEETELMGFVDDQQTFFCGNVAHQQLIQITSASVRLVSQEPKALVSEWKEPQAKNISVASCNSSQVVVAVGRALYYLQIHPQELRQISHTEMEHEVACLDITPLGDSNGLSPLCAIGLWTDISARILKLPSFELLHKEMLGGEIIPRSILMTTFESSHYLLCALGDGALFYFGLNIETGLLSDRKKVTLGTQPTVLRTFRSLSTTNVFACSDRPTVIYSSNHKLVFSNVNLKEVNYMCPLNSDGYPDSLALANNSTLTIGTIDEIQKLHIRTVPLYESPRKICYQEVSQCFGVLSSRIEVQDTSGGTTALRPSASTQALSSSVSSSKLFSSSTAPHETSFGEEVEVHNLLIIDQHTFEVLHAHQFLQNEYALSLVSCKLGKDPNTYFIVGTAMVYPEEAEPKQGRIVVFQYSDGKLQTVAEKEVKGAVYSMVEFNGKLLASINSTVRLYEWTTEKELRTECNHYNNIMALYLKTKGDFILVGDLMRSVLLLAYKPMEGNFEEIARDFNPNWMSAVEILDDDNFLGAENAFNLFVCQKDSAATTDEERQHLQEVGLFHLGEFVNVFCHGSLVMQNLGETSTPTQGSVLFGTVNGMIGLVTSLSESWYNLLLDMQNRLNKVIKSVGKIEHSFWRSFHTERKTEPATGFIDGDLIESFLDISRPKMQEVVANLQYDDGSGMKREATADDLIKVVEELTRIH

IKZF2 = molecular target: T3, IKZF2 (Homo sapiens, UniProt Q96SW2+Q9UKS7); assay: Western-blot assay of substrate protein degradation in hPBMCs, IKZF2; type: cell-based; conditions: 24 hours of compound treatment
T3 construct: endogenous in cells; host or cells: hPBMCs (Milecell Biotechnologies)
T3 sequence (Q9UKS7 whole entry): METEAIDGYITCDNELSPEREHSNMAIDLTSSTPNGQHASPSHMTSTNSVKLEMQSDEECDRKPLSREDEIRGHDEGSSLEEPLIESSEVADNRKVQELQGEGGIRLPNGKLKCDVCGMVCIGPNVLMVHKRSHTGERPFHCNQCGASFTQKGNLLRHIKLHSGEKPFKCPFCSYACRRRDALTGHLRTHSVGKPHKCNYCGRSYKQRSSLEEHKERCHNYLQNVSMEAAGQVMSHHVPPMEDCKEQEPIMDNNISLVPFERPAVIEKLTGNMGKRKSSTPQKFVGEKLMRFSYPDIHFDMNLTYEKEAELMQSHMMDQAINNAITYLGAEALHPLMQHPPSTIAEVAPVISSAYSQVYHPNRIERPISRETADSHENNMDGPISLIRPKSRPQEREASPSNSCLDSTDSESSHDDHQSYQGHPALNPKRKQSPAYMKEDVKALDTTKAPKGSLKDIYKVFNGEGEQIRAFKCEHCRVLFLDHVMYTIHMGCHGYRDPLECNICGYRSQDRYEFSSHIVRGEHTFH
T3 sequence (Q96SW2 whole entry): as the sequence (Q96SW2 whole entry) above
T3 sequence (Q16531 whole entry partner): as the sequence (Q16531 whole entry partner) above

IKZF3 = molecular target: T4, IKZF3 (Homo sapiens, UniProt Q96SW2+Q9UKT9); assay: Western-blot assay of substrate protein degradation in hPBMCs, IKZF3; type: cell-based; conditions: 24 hours of compound treatment
T4 construct: endogenous in cells; host or cells: hPBMCs (Milecell Biotechnologies)
T4 sequence (Q9UKT9 whole entry): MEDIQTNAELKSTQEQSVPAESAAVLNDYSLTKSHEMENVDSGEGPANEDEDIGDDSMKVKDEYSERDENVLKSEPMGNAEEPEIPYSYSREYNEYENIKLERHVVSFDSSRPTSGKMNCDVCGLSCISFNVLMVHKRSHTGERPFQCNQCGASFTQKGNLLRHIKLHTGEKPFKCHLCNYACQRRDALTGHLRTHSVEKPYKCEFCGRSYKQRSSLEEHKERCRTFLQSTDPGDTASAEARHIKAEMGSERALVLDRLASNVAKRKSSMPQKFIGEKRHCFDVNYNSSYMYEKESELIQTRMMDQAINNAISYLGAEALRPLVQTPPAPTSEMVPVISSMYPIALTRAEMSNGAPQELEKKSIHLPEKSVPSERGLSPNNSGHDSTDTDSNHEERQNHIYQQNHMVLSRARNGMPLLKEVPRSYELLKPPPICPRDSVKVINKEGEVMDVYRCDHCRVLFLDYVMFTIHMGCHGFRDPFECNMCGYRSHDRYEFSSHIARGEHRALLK
T4 sequence (Q96SW2 whole entry): as the sequence (Q96SW2 whole entry) above
T4 sequence (Q16531 whole entry partner): as the sequence (Q16531 whole entry partner) above

CK1α = molecular target: T5, CK1α (Homo sapiens, UniProt P48729+Q96SW2); assay: Western-blot assay of substrate protein degradation in hPBMCs, CK1α; type: cell-based; conditions: 24 hours of compound treatment
T5 construct: endogenous in cells; host or cells: hPBMCs (Milecell Biotechnologies)

GSPT1 = molecular target: T6, GSPT1 (Homo sapiens, UniProt P15170+Q96SW2); assay: Western-blot assay of substrate protein degradation in hPBMCs, GSPT1; type: cell-based; conditions: 24 hours of compound treatment
T6 construct: endogenous in cells; host or cells: hPBMCs (Milecell Biotechnologies)
T6 sequence (P15170 whole entry): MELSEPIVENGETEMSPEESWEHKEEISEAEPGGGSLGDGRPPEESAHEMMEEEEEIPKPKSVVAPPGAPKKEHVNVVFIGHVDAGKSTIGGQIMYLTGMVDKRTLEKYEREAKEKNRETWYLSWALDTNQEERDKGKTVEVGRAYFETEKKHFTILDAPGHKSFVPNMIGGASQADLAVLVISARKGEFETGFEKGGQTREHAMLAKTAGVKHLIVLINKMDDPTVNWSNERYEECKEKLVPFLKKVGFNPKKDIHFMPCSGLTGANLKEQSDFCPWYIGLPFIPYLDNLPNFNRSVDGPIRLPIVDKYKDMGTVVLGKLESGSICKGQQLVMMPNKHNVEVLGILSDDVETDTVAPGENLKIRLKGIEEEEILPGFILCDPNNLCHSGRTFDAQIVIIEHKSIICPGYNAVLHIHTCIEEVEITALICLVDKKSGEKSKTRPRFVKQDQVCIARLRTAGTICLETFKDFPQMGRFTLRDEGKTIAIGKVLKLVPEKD
T6 sequence (Q96SW2 whole entry): as the sequence (Q96SW2 whole entry) above
T6 sequence (Q16531 whole entry partner): as the sequence (Q16531 whole entry partner) above

[1] = molecular target: T7, human Cereblon WT GST-tagged protein (Homo sapiens, UniProt Q96SW2); assay: CRBN-binding affinity by HTRF (CEREBLON BINDING kit); conditions: HTRF inhibitory activity, CEREBLON BINDING kit; read-out: HTRF IC50
T7 construct: purchased CISBIO 64BDCRBNPEH
T7 sequence (Q96SW2 whole entry): as the sequence (Q96SW2 whole entry) above

MM.1S = assay: Tumor cell proliferation inhibition (CellTiter-Meiluncell Luminescent Cell Viability Assay), MM.1S; conditions: Homo sapiens, MM1.S, read-out: inhibitory activity (IC50, nM) against tumor cells proliferation, MM.1S
Jurkat = assay: Tumor cell proliferation inhibition (CellTiter-Meiluncell Luminescent Cell Viability Assay), Jurkat; conditions: Homo sapiens, read-out: inhibitory activity (IC50, nM) against tumor cells proliferation, Jurkat
[2] = tested on: Human acute T lymphocytic leukemia cells (Molt-4); assay: Tumor cell proliferation inhibition (CellTiter-Meiluncell Luminescent Cell Viability Assay), Molt-4; conditions: MOLT-4, read-out: inhibitory activity (IC50, nM) against tumor cells proliferation, Molt-4
MV-4-11 = assay: Tumor cell proliferation inhibition (CellTiter-Meiluncell Luminescent Cell Viability Assay), MV-4-11; conditions: Homo sapiens, MV4-11, read-out: inhibitory activity (IC50, nM) against tumor cells proliferation, MV-4-11
CCRF-CEM = assay: Tumor cell proliferation inhibition (CellTiter-Meiluncell Luminescent Cell Viability Assay), CCRF-CEM; conditions: Homo sapiens, read-out: inhibitory activity (IC50, nM) against tumor cells proliferation, CCRF-CEM
[3] = compounds tested at 50 nM and 500 nM (concentration of the table not stated)
[4] = 50 nM and 500 nM tested (concentration behind the class not stated)

T1 sequence (P30291 whole entry): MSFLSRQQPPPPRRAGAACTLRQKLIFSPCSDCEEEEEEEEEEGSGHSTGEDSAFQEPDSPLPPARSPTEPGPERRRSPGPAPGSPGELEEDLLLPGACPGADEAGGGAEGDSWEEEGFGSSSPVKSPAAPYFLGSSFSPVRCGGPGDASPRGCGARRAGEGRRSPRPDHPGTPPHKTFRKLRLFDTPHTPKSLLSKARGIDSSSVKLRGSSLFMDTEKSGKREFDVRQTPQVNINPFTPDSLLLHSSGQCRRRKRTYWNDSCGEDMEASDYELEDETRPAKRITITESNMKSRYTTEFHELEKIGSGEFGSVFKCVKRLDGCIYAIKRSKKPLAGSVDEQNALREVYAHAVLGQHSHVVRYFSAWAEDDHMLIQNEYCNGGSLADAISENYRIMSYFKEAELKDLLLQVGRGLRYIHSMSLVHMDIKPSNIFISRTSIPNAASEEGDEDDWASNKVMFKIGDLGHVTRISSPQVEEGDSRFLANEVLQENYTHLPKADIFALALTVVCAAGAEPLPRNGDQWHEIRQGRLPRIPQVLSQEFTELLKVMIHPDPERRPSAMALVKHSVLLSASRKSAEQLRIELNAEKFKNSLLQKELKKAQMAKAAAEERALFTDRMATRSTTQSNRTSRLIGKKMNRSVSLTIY
T1 sequence (Q96SW2 whole entry): as the sequence (Q96SW2 whole entry) above
T1 sequence (Q16531 whole entry partner): as the sequence (Q16531 whole entry partner) above

| IC50 [1] [nM] | IC50 (MM.1S) [nM] | SMILES | Weel substrate protein remaining % (WEE1; [3]) | IKZF 1 substrate protein remaining % (IKZF1; [3]) | IKZF2 substrate protein remaining % (IKZF2; [3]) | IKZF3 substrate protein remaining % (IKZF3; [3]) | CK1a substrate protein remaining % (CK1α; [3]) | GSPT1 substrate protein remaining % (GSPT1; [3]) | Weel substrate protein remaining % (WEE1; [4]) | IKZF 1 substrate protein remaining % (IKZF1; [4]) | IKZF2 substrate protein remaining % (IKZF2; [4]) | IKZF3 substrate protein remaining % (IKZF3; [4]) | CK1a substrate protein remaining % (CK1α; [4]) | GSPT1 substrate protein remaining % (GSPT1; [4]) | IC50 (Jurkat) [nM] | IC50 [2] [nM] | IC50 (MV-4-11) [nM] | IC50 (CCRF-CEM) [nM] |
| --- | --- | --- | --- | --- | --- | --- | --- | --- | --- | --- | --- | --- | --- | --- | --- | --- | --- | --- |
| < 500 | 10 to 50 | O=C1CCC(N2Cc3cc(CN4CCC(C5CCOc6cc(F)ccc65)CC4)ccc3C2=O)C(=O)N1 (stereo not drawn) [GT-04901, 3-(5-((4-(7-fluorochroman-4-yl)piperidin-1-yl)methyl)-1-oxoisoindolin-2-yl)piperidine-2,6-dione] | B (80%< substrate protein remaining %≤ 100%) | A (0% ≤ substrate protein remaining % ≤ 80%) | A (0% ≤ substrate protein remaining % ≤ 80%) | A (0% ≤ substrate protein remaining % ≤ 80%) | B (80%< substrate protein remaining %≤ 100%) | B (80%< substrate protein remaining %≤ 100%) | – | – | – | – | – | – | – | – | – | – |
| < 500 | 10 to 50 | O=C1CCC(N2Cc3cc(CN4CC5CCC4CN5c4cccc(Cl)c4Cl)ccc3C2=O)C(=O)N1 (stereo not drawn) [GT-04930, 3-(5-((5-(2,3-dichlorophenyl)-2,5-diazabicyclo[2.2.2]octan-2-yl)methyl)-1-oxoisoindolin-2-yl)piperidine-2,6-dione] | A (0% ≤ substrate protein remaining % ≤ 80%) | A (0% ≤ substrate protein remaining % ≤ 80%) | A (0% ≤ substrate protein remaining % ≤ 80%) | A (0% ≤ substrate protein remaining % ≤ 80%) | B (80%< substrate protein remaining %≤ 100%) | A (0% ≤ substrate protein remaining % ≤ 80%) | – | – | – | – | – | – | – | – | – | – |
| < 500 | 10 to 50 | Cc1nc(N2CCN(Cc3ccc4c(c3)CN(C3CCC(=O)NC3=O)C4=O)CC2)c2c3c(sc2n1)CCCC3 (stereo not drawn) [GT-04900, 3-(5-((4-(2-methyl-5,6,7,8-tetrahydrobenzo[4,5]thieno[2,3-d]pyrimidin-4-yl)piperazin-1-yl)methyl)-1-oxoisoindolin-2-yl)piperidine-2,6-dione] | B (80%< substrate protein remaining %≤ 100%) | A (0% ≤ substrate protein remaining % ≤ 80%) | A (0% ≤ substrate protein remaining % ≤ 80%) | A (0% ≤ substrate protein remaining % ≤ 80%) | A (0% ≤ substrate protein remaining % ≤ 80%) | B (80%< substrate protein remaining %≤ 100%) | – | – | – | – | – | – | – | – | – | – |
| < 500 | 5 to 10 | O=C1CCC(N2Cc3cc(CN4C[C@@H]5C[C@H]4CN5c4cccc(Cl)c4Cl)ccc3C2=O)C(=O)N1 (stereo partly drawn) [GT-04898, 3-(5-(((1S,4S)-5-(2,3-dichlorophenyl)-2,5-diazabicyclo[2.2.1]heptan-2-yl)methyl)-1-oxoisoindolin-2-yl)piperidine-2,6-dione] | B (80%< substrate protein remaining %≤ 100%) | A (0% ≤ substrate protein remaining % ≤ 80%) | A (0% ≤ substrate protein remaining % ≤ 80%) | A (0% ≤ substrate protein remaining % ≤ 80%) | B (80%< substrate protein remaining %≤ 100%) | A (0% ≤ substrate protein remaining % ≤ 80%) | – | – | – | – | – | – | – | – | – | – |
| < 500 | 10 to 50 | O=C1CCC(N2Cc3cc(CN4CCN(c5nc(N6CCOCC6)nc6ccsc56)CC4)ccc3C2=O)C(=O)N1 (stereo not drawn) [GT-04903, 3-(5-((4-(2-morpholinothieno[3,2-d]pyrimidin-4-yl)piperazin-1-yl)methyl)-1-oxoisoindolin-2-yl)piperidine-2,6-dione] | B (80%< substrate protein remaining %≤ 100%) | B (80%< substrate protein remaining %≤ 100%) | A (0% ≤ substrate protein remaining % ≤ 80%) | A (0% ≤ substrate protein remaining % ≤ 80%) | A (0% ≤ substrate protein remaining % ≤ 80%) | A (0% ≤ substrate protein remaining % ≤ 80%) | – | – | – | – | – | – | – | – | – | – |

Further lines, the molecule ahead of its results:

| SMILES | IC50 [1] [nM] | IC50 (MM.1S) [nM] | Weel substrate protein remaining % (WEE1; [3]) | IKZF 1 substrate protein remaining % (IKZF1; [3]) | IKZF2 substrate protein remaining % (IKZF2; [3]) | IKZF3 substrate protein remaining % (IKZF3; [3]) | CK1a substrate protein remaining % (CK1α; [3]) | GSPT1 substrate protein remaining % (GSPT1; [3]) | Weel substrate protein remaining % (WEE1; [4]) | IKZF 1 substrate protein remaining % (IKZF1; [4]) | IKZF2 substrate protein remaining % (IKZF2; [4]) | IKZF3 substrate protein remaining % (IKZF3; [4]) | CK1a substrate protein remaining % (CK1α; [4]) | GSPT1 substrate protein remaining % (GSPT1; [4]) | IC50 (Jurkat) [nM] | IC50 [2] [nM] | IC50 (MV-4-11) [nM] | IC50 (CCRF-CEM) [nM] |
| --- | --- | --- | --- | --- | --- | --- | --- | --- | --- | --- | --- | --- | --- | --- | --- | --- | --- | --- |
| Cc1nc(C2=CCN(Cc3ccc4c(c3)CN(C3CCC(=O)NC3=O)C4=O)CC2)c2c3c(sc2n1)CCCC3 (stereo not drawn) [GT-04863, 3-(5-((4-(2-methyl-5,6,7,8-tetrahydrobenzo[4,5]thieno[2,3-d]pyrimidin-4-yl)-3,6-dihydropyridin-1 (2H)-yl)methyl)-1-oxoisoindolin-2-yl)piperidine-2,6-dione] | < 500 | 10 to 50 | A (0% ≤ substrate protein remaining % ≤ 80%) | A (0% ≤ substrate protein remaining % ≤ 80%) | A (0% ≤ substrate protein remaining % ≤ 80%) | A (0% ≤ substrate protein remaining % ≤ 80%) | A (0% ≤ substrate protein remaining % ≤ 80%) | A (0% ≤ substrate protein remaining % ≤ 80%) | – | – | – | – | – | – | – | – | – | – |
| O=C1CCC(N2Cc3cc(CN4CCC(N5CCOc6cc(F)ccc65)CC4)ccc3C2=O)C(=O)N1 (stereo not drawn) [GT-04859, 3-(5-((4-(7-fluoro-2,3-dihydro-4H-benzo[b][1,4]oxazin-4-yl)piperidin-1-yl)methyl)-1-oxoisoindolin-2-yl)piperidine-2,6-dione] | < 500 | 50 to 100 | B (80%< substrate protein remaining %≤ 100%) | A (0% ≤ substrate protein remaining % ≤ 80%) | A (0% ≤ substrate protein remaining % ≤ 80%) | A (0% ≤ substrate protein remaining % ≤ 80%) | B (80%< substrate protein remaining %≤ 100%) | A (0% ≤ substrate protein remaining % ≤ 80%) | – | – | – | – | – | – | – | – | – | – |
| O=C1CCC(N2C(=O)c3ccc(CN4CC=C(c5cncc(Cl)c5Cl)CC4)cc3C2=O)C(=O)N1 (stereo not drawn) [GT-06609, 5-((4,5-dichloro-3',6'-dihydro-[3,4'-bipyridin]-1'(2'H)-yl)methyl)-2-(2,6-dioxopiperidin-3-yl)isoindoline-1,3-dione] | 500 to 1000 | – | – | – | – | – | – | – | A (0% ≤ substrate protein remaining % ≤ 80%) | A (0% ≤ substrate protein remaining % ≤ 80%) | A (0% ≤ substrate protein remaining % ≤ 80%) | A (0% ≤ substrate protein remaining % ≤ 80%) | B (80%< substrate protein remaining %≤ 100%) | A (0% ≤ substrate protein remaining % ≤ 80%) | 100 to 500 | 100 to 500 | 100 to 500 | 100 to 500 |
| O=C1CCC(N2Cc3cc(CN4CCCN(c5cccc(Cl)c5Cl)CC4)ccc3C2=O)C(=O)N1 (stereo not drawn) [GT-04856, 3-(5-((4-(2,3-dichlorophenyl)-1,4-diazepan-1-yl)methyl)-1-oxoisoindolin-2-yl)piperidine-2,6-dione] | 500 to 1000 | 10 to 50 | A (0% ≤ substrate protein remaining % ≤ 80%) | A (0% ≤ substrate protein remaining % ≤ 80%) | A (0% ≤ substrate protein remaining % ≤ 80%) | A (0% ≤ substrate protein remaining % ≤ 80%) | B (80%< substrate protein remaining %≤ 100%) | A (0% ≤ substrate protein remaining % ≤ 80%) | – | – | – | – | – | – | – | – | – | – |
